Laboratory results: ChEMBL document CHEMBL1909524, “Discovery of a novel series of cyclic urea as potent CCR5 antagonists” (Bioorg Med Chem Lett, 2011)

What was measured:
[1] = system: Human immunodeficiency virus 1; test: Antiviral activity against HIV1 Ba-L infected in human PBL cells assessed as reduction of viral replication after 4 days by Steady-Glo luciferase assay; format: functional, organism-based; conditions: Human immunodeficiency virus 1, Ba-L, 96 h
[2] = system: Human immunodeficiency virus 1; test: Antiviral activity against HIV1 Ba-L infected in human HOS cells assessed as reduction of viral replication after 4 days by Steady-Glo luciferase assay; format: functional, organism-based; conditions: Human immunodeficiency virus 1, Ba-L, 96 h
[3] = Stability of the compound in fasted stimulated intestinal fluid assessed as half life at pH 6; format: physicochemical; conditions: fasted simulated intestinal fluid
[4] = system: HOS; test: Cytotoxicity against human HOS cells assessed as cell death up to 1 uM by celltiter glo assay; format: cell-based
[5] = Stability of the compound in fasted stimulated intestinal fluid within 1000 hrs; format: physicochemical; conditions: simulated gi fluid
[6] = Oral bioavailability in dog at 1 mg/kg; format: ADME, organism-based, Canis lupus familiaris; conditions: in vivo
[7] = Clearance in rat; format: ADME, organism-based; conditions: in vivo
[8] = system: PBL; test: Cytotoxicity against human PBL cells assessed as cell death up to 1 uM by celltiter glo assay; format: cell-based
[9] = Half life in dog at 1 mg/kg, iv; format: ADME, organism-based, Canis lupus familiaris; design: dose 1 mg/kg, route intravenous; conditions: in vivo
[10] = Oral bioavailability in monkey at 1 mg/kg; format: ADME, organism-based, Macaca mulatta; conditions: rhesus monkey, in vivo
[11] = Half life in monkey at 1 mg/kg, iv; format: ADME, organism-based, Macaca mulatta; design: dose 1 mg/kg, route intravenous; conditions: rhesus monkey, in vivo
[12] = Clearance in monkey at 1 mg/kg, po; format: ADME, organism-based, Macaca mulatta; design: dose 1 mg/kg, route oral; conditions: rhesus monkey, in vivo
[13] = Clearance in dog at 1 mg/kg, po; format: ADME, organism-based, Canis lupus familiaris; design: dose 1 mg/kg, route oral; conditions: in vivo
[14] = Metabolic stability of the compound in fasted stimulated intestinal fluid; format: physicochemical; conditions: simulated gi fluid

Row | IC50 [1] | IC50 [2] | Structure (SMILES) | Activity [4] | Activity [8] | other results
1 | 0.6 nM | 2 nM | Cc1nc(Oc2ccc(NS(C)(=O)=O)cc2)ccc1CN1CCC(N(C(=O)Nc2cc(C(N)=O)c(F)cc2F)c2cccc(F)c2)CC1 | – | – | half-life [3]: 334 h
2 | 0.9 nM | 1.7 nM | Cc1nc(Oc2ccc(NS(C)(=O)=O)cc2)ccc1CN1CCC(N(Cc2ccccc2F)C(=O)Nc2cc(C(N)=O)c(F)cc2F)CC1 | – | – | –
3 | 1 nM | 4 nM | Cc1nc(Oc2ccc(S(C)(=O)=O)cc2)ccc1CN1CCC(N2C(=O)N(c3cc(C(N)=O)c(F)cc3F)C[C@H]2c2ccccc2)CC1 | Non-toxic | Non-toxic | Stability [5]: Stable; bioavailability [6]: 76%; clearance [7]: 27 mL/min/kg; half-life [9]: 6.9 h; bioavailability [10]: 110%; half-life [11]: 1.4 h; CL/F [12]: 20.2 mL/min/kg; CL/F [13]: 2.1 mL/min/kg
4 | 289 nM | 213 nM | Cc1nc(Oc2ccc(S(C)(=O)=O)cc2)ccc1CN1CCC(N2C(=O)N(c3cc(C(N)=O)c(F)cc3F)C[C@@H]2c2ccccc2)CC1 | – | – | –
5 | 1.6 nM | 2.6 nM | CC(C)c1nc(Oc2ccc(S(C)(=O)=O)cc2)ccc1CN1CCC(N2C(=O)N(c3cc(C(N)=O)c(F)cc3F)C[C@H]2c2ccccc2)CC1 | Non-toxic | Non-toxic | –
6 | 1.1 nM | 3.6 nM | Cc1nc(Oc2ccc(S(=O)(=O)C(C)C)cc2)ccc1CN1CCC(N2C(=O)N(c3cc(C(N)=O)c(F)cc3F)C[C@H]2c2ccccc2)CC1 | Non-toxic | Non-toxic | –
7 | 0.6 nM | 5.2 nM | Cc1nc(Oc2ccc(S(C)(=O)=O)cc2F)ccc1CN1CCC(N2C(=O)N(c3cc(C(N)=O)c(F)cc3F)C[C@H]2c2ccccc2)CC1 | Non-toxic | Non-toxic | –
8 | – | 5.4 nM | Cc1cc(S(C)(=O)=O)ccc1Oc1ccc(CN2CCC(N3C(=O)N(c4cc(C(N)=O)c(F)cc4F)C[C@H]3c3ccccc3)CC2)c(C)n1 | Non-toxic | Non-toxic | –
9 | 0.5 nM | 3.3 nM | Cc1nc(Oc2ccc(CC(=O)NC(C)C)cc2)ccc1CN1CCC(N2C(=O)N(c3cc(C(N)=O)c(F)cc3F)C[C@H]2c2ccccc2)CC1 | Non-toxic | Non-toxic | –
10 | – | 14 nM | Cc1nc(Oc2ccc(NS(C)(=O)=O)cc2)ccc1CN1CCC(N2C(=O)N(c3cc(C(N)=O)c(F)cc3F)C(=O)C2c2ccccc2)CC1 (racemic) | – | – | Stability [14]: Unstable
11 | 2 nM | 12 nM | Cc1nc(Oc2ccc(S(C)(=O)=O)cc2)ccc1CN1CCC(N2C(=O)N(c3cc(C(N)=O)c(F)cc3F)CC2c2ccccc2)CC1 (racemic) | – | – | –

Row | Structure (SMILES) | IC50 [1] | IC50 [2] | Activity [4] | Activity [8] | other results
12 | Cc1nc(Oc2ccc(NS(C)(=O)=O)cc2)ccc1CN1CCC(N(C(=O)Oc2ccc(F)c(C(N)=O)c2)c2cccc(F)c2)CC1 | – | 29 nM | – | – | –
